Reference: ChEMBL document CHEMBL6134889, “ByeTAC: Bypassing E-Ligase-Targeting Chimeras for Direct Proteasome Degradation” (J Med Chem, 2025)
Blank lines part the entries; values can stand above or below the compound they belong to. Active and inactive are the calls of the source. The calls are words filed in the database; no cut-off is given here.

Assays:
[1] = biological target: T1, Proteasomal ubiquitin receptor ADRM1/Bromodomain-containing protein 4 (Homo sapiens, UniProt O60885+Q16186); assay: BYETAC activity at 26S proteasome subunit Rpn13/BRD4 in human Ramos cells assessed as induction of BRD4 degradation by measuring remaining activity at 100 nM incubated for 18 hrs by Western blot analysis (reference value: 100 %); assay type: cell-based
[2] = biological target: T1, Proteasomal ubiquitin receptor ADRM1/Bromodomain-containing protein 4; assay: BYETAC activity at 26S proteasome subunit Rpn13/BRD4 in human Raji cells assessed as induction of BRD4 degradation by measuring remaining activity at 500 nM incubated for 18 hrs by Western blot analysis (reference value: 100 %); assay type: cell-based
[3] = biological target: T1, Proteasomal ubiquitin receptor ADRM1/Bromodomain-containing protein 4; assay: BYETAC activity at 26S proteasome subunit Rpn13/BRD4 in human Raji cells assessed as induction of BRD4 degradation by measuring remaining activity at 100 nM incubated for 18 hrs by Western blot analysis (reference value: 100 %); assay type: cell-based
[4] = biological target: T1, Proteasomal ubiquitin receptor ADRM1/Bromodomain-containing protein 4; assay: BYETAC activity at 26S proteasome subunit Rpn13/BRD4 in human Ramos cells assessed as induction of BRD4 degradation by measuring remaining activity at 500 nM incubated for 18 hrs by Western blot analysis (reference value: 100 %); assay type: cell-based
[5] = biological target: T1, Proteasomal ubiquitin receptor ADRM1/Bromodomain-containing protein 4; assay: BYETAC activity at 26S proteasome subunit Rpn13/BRD4 in human Ramos cells assessed as induction of BRD4 degradation by measuring remaining activity at 10 nM incubated for 18 hrs by Western blot analysis (reference value: 100 %); assay type: cell-based
[6] = biological target: T1, Proteasomal ubiquitin receptor ADRM1/Bromodomain-containing protein 4; assay: BYETAC activity at 26S proteasome subunit Rpn13/BRD4 in human U87 cells assessed as induction of BRD4 degradation by measuring remaining activity at 100 nM incubated for 18 hrs by Western blot analysis (reference value: 100 %); assay type: cell-based
[7] = biological target: T1, Proteasomal ubiquitin receptor ADRM1/Bromodomain-containing protein 4; assay: BYETAC activity at 26S proteasome subunit Rpn13/BRD4 in human U87 cells assessed as induction of BRD4 degradation by measuring remaining activity at 10 nM incubated for 18 hrs by Western blot analysis (reference value: 100 %); assay type: cell-based
[8] = biological target: T1, Proteasomal ubiquitin receptor ADRM1/Bromodomain-containing protein 4; assay: BYETAC activity at 26S proteasome subunit Rpn13/BRD4 in human Raji cells assessed as induction of BRD4 degradation by measuring remaining activity at 10 nM incubated for 18 hrs by Western blot analysis (reference value: 100 %); assay type: cell-based
[9] = biological target: T1, Proteasomal ubiquitin receptor ADRM1/Bromodomain-containing protein 4; assay: BYETAC activity at 26S proteasome subunit Rpn13/BRD4 in human Ramos cells assessed as induction of BRD4 degradation incubated for 18 hrs by Western blot analysis; assay type: cell-based
[10] = biological target: T1, Proteasomal ubiquitin receptor ADRM1/Bromodomain-containing protein 4; assay: BYETAC activity at 26S proteasome subunit Rpn13/BRD4 in human U87 cells assessed as induction of BRD4 degradation by measuring remaining activity at 500 nM incubated for 18 hrs by Western blot analysis (reference value: 100 %); assay type: cell-based
[11] = biological target: T1, Proteasomal ubiquitin receptor ADRM1/Bromodomain-containing protein 4; assay: Induction of BRD4 degradation in human Ramos cells at 10 to 1000 nM incubated for 18 hrs by Western blot analysis; assay type: cell-based; details: dose 10-1000 nM
[12] = biological target: T2, Proteasomal ubiquitin receptor ADRM1/Tyrosine-protein kinase BTK (Homo sapiens) (UniProt Q06187+Q16186); assay: BYETAC activity at 26S proteasome subunit Rpn13/BTK in human Ramos cells assessed as induction of BTK degradation by measuring remaining activity at 0.5 uM incubated for 18 hrs by Western blot analysis (reference value: 100 %); assay type: cell-based
[13] = biological target: T2, Proteasomal ubiquitin receptor ADRM1/Tyrosine-protein kinase BTK (Homo sapiens); assay: BYETAC activity at 26S proteasome subunit Rpn13/BTK in human Ramos cells assessed as induction of BTK degradation by measuring remaining activity at 1 uM incubated for 18 hrs by Western blot analysis (reference value: 100 %); assay type: cell-based
[14] = biological target: T2, Proteasomal ubiquitin receptor ADRM1/Tyrosine-protein kinase BTK (Homo sapiens); assay: BYETAC activity at 26S proteasome subunit Rpn13/BTK in human Ramos cells assessed as induction of BTK degradation by measuring remaining activity at 10 uM incubated for 18 hrs by Western blot analysis (reference value: 100 %); assay type: cell-based
[15] = biological target: T2, Proteasomal ubiquitin receptor ADRM1/Tyrosine-protein kinase BTK (Homo sapiens); assay: BYETAC activity at 26S proteasome subunit Rpn13/BTK in human Ramos cells assessed as induction of BTK degradation by measuring remaining activity at 25 uM incubated for 18 hrs by Western blot analysis (reference value: 100 %); assay type: cell-based
[16] = biological target: T2, Proteasomal ubiquitin receptor ADRM1/Tyrosine-protein kinase BTK (Homo sapiens); assay: BYETAC activity at 26S proteasome subunit Rpn13/BTK in human Ramos cells assessed as induction of BTK degradation at 1 to 25 uM incubated for 18 hrs by Western blot analysis; assay type: cell-based; details: dose 1-25 µM
[17] = tested on: Ramos; assay: Antiproliferative activity against human Ramos cells assessed as reduction in cell viability incubated for 48 hrs; assay type: functional, cell-based
[18] = biological target: T1, Proteasomal ubiquitin receptor ADRM1/Bromodomain-containing protein 4; assay: BYETAC activity at 26S proteasome subunit Rpn13/BRD4 in human Ramos cells assessed as induction of BRD4 degradation at 500 nM preincubated with TCL1 for 1 hrs followed by compound addition and measured after 18 hrs by competitive Western blot analysis; assay type: cell-based
[19] = biological target: Proteasomal ubiquitin receptor ADRM1/Bromodomain-containing protein 2 (Homo sapiens) (UniProt P25440+Q16186); assay: BYETAC activity at 26S proteasome subunit Rpn13/BRD2 in human Ramos cells assessed as induction of BRD2 degradation at 100 nM incubated for 18 hrs by Western blot analysis; assay type: cell-based
[20] = biological target: T1, Proteasomal ubiquitin receptor ADRM1/Bromodomain-containing protein 4; assay: BYETAC activity at 26S proteasome subunit Rpn13/BRD4 in human Ramos cells assessed as induction of BRD4 degradation at 500 nM preincubated with JQ1 for 1 hrs followed by compound addition and measured after 18 hrs by competitive Western blot analysis; assay type: cell-based
[21] = biological target: T1, Proteasomal ubiquitin receptor ADRM1/Bromodomain-containing protein 4; assay: BYETAC activity at 26S proteasome subunit Rpn13/BRD4 in human U87 cells assessed as induction of BRD4 degradation at 500 nM measured up to 72 hrs by Western blot analysis; assay type: cell-based
[22] = biological target: Proteasomal ubiquitin receptor ADRM1/Bromodomain-containing protein 3 (Homo sapiens) (UniProt Q15059+Q16186); assay: BYETAC activity at 26S proteasome subunit Rpn13/BRD3 in human Ramos cells assessed as induction of BRD3 degradation at 100 nM incubated for 18 hrs by Western blot analysis; assay type: cell-based
[23] = biological target: T1, Proteasomal ubiquitin receptor ADRM1/Bromodomain-containing protein 4; assay: Binding affinity to 26S proteasome subunit Rpn13/BRD4 in human Ramos cells assessed as ternary complex formation at 5 uM incubated for 3 hrs by co-immunoprecipitation analysis; assay type: cell-based
[24] = biological target: Proteasomal ubiquitin receptor ADRM1 (Homo sapiens) (UniProt Q16186); assay: Induction of Rpn-13 stabilization in human Ramos cells assessed as increase in Rpn-13 level at 5 uM incubated for 3 hrs by co-immunoprecipitation analysis; assay type: cell-based
[25] = biological target: T1, Proteasomal ubiquitin receptor ADRM1/Bromodomain-containing protein 4; assay: BYETAC activity at 26S proteasome subunit Rpn13/BRD4 in human Ramos cells assessed as induction of BRD4 degradation by measuring remaining activity at 100 nM incubated for 18 hrs in presence of TAK-243 by Western blot analysis relative to control; assay type: cell-based
[26] = biological target: T1, Proteasomal ubiquitin receptor ADRM1/Bromodomain-containing protein 4; assay: Induction of BRD4 degradation in human U87 cells transfected with Rpn-13 siRNA at 100 nM incubated for 18 hrs by Western blot analysis; assay type: cell-based
[27] = biological target: T1, Proteasomal ubiquitin receptor ADRM1/Bromodomain-containing protein 4; assay: BYETAC activity at 26S proteasome subunit Rpn13/BRD4 in human Ramos cells assessed as induction of BRD4 degradation at 100 nM incubated for 18 hrs in presence of MG132 by Western blot analysis; assay type: cell-based
[28] = biological target: Proteasomal ubiquitin receptor ADRM1/Glycogen synthase kinase-3 beta (Homo sapiens) (UniProt P49841+Q16186); assay: Halo-BYETAC activity at 26S proteasome subunit Rpn13/Halo-tagged GSK3beta (unknown origin) transfected in human U87 cells assessed as induction of Halo-tagged GSK3beta degradation at 1 to 10 uM incubated for 18 hrs by Western blot analysis; assay type: cell-based; details: dose 1-10 µM

Activity [1]: 69%
Activity [2]: 68%
Activity [3]: 77%
Activity [4]: 35%
Activity [5]: 111%
Activity [6]: 53%
Activity [7]: 83%
Activity [8]: 78%
DC50 [9]: ~500 nM
Activity [10]: 36%
Structure (SMILES): Cc1sc2c(c1C)C(c1ccc(Cl)cc1)=N[C@@H](CC(=O)NCCOCCOCCOCCNC(=O)CC1Sc3nnc(Cc4ccc(Br)cc4)n3N=C1c1ccc(Cl)cc1)c1nnc(C)n1-2 (stereo not given in full)

Activity [11]: inactive
Structure (SMILES): O=C(O)CC1Sc2nnc(Cc3ccc(Br)cc3)n2N=C1c1ccc(Cl)cc1 (stereo not given)

Activity [1]: 87%
Activity [4]: 60%
Activity [5]: 92%
Structure (SMILES): Cc1sc2c(c1C)C(c1ccc(Cl)cc1)=N[C@@H](CC(=O)NCCOCCOCCOCCOCCOCCNC(=O)CC1Sc3nnc(Cc4ccc(Br)cc4)n3N=C1c1ccc(Cl)cc1)c1nnc(C)n1-2 (stereo not given in full)

Activity [1]: 100%
Activity [4]: 80%
Activity [5]: 107%
Structure (SMILES): Cc1sc2c(c1C)C(c1ccc(Cl)cc1)=N[C@@H](CC(=O)NCCOCCOCCOCCOCCOCCOCCOCCNC(=O)CC1Sc3nnc(Cc4ccc(Br)cc4)n3N=C1c1ccc(Cl)cc1)c1nnc(C)n1-2 (stereo not given in full)

Activity [12]: 97%
Activity [13]: 72%
Activity [14]: 3%
Activity [15]: 6%
Structure (SMILES): Nc1ncnc2c1c(-c1ccc(Oc3ccccc3)cc1)nn2[C@H]1CCCN(C(=O)CCC(=O)NCCOCCOCCOCCOCCOCCOCCOCCOCCNC(=O)CC2Sc3nnc(Cc4ccc(Br)cc4)n3N=C2c2ccc(Cl)cc2)C1 (stereo not given in full)

Activity [16]: inactive
Structure (SMILES): Nc1ncnc2c1c(-c1ccc(Oc3ccccc3)cc1)nn2[C@H]1CCCN(C(=O)COCCOCCOCCOCCNC(=O)CC2Sc3nnc(Cc4ccc(Br)cc4)n3N=C2c2ccc(Cl)cc2)C1 (stereo not given in full)

IC50 [17]: 1.9 nM
Structure (SMILES): Cc1sc2c(c1C)C(c1ccc(Cl)cc1)=N[C@@H](CC(=O)Nc1ccc(OCCOCCOCCOCCNc3cccc4c3C(=O)N(C3CCC(=O)NC3=O)C4=O)cc1)c1nnc(C)n1-2 (stereo not given in full)

Activity [1]: 55%
Activity [18]: inactive
Activity [19]: Active
Activity [2]: 62%
Activity [20]: inactive
IC50 [17]: 30.5 nM
Activity [21]: Active
Activity [22]: Active
Activity [23]: Active
Activity [3]: 72%
Activity [24]: Active
Activity [4]: 33%
Activity [25]: 40%
Activity [5]: 91%
Activity [6]: 36%
Activity [7]: 66%
Activity [8]: 95%
DC50 [9]: ~500 nM
Activity [26]: inactive
Activity [27]: inactive
Activity [10]: 20%
Structure (SMILES): Cc1sc2c(c1C)C(c1ccc(Cl)cc1)=N[C@@H](CC(=O)NCCOCCOCCOCCOCCNC(=O)CC1Sc3nnc(Cc4ccc(Br)cc4)n3N=C1c1ccc(Cl)cc1)c1nnc(C)n1-2 (stereo not given in full)

Activity [28]: Active
Structure (SMILES): ClCCCCCCNCCOCCOCCNCC1Sc2nnc(Cc3ccc(Br)cc3)n2N=C1c1ccc(Cl)cc1 (stereo not given)
